Where a SMILES comes first, the peptide text is derived from it.
Experiments:
HLA-A24.02 = assay: Class I MHC peptide binding affinity (displacement of radiolabeled reference peptide); design: species or system human; conditions: allele A24.02; read-out: Observed Affinity (IC50; (nM))
HLA-A02.01 [1] = target: HLA-A02.01 (Homo sapiens, UniProt P04439, D140Y/D185E/D98H/E176V/E277Q/G131W/G231S/I119V/I121R/I166T/I218V/L300P/L318F/N151K/N90K/P208A/P217A/Q86G/Q94H/R138H/R169H/T345S); assay: as above; conditions: for Kd: EGFR T790M peptides, HLA allele A02.01, read-out: Affinity; for IC50: allele A02.01, read-out: Observed Affinity (IC50, (nM))
In short: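 Displacement format in which varying amounts of peptide compete for 2 days with a radiolabeled reference ligand prebound to class I MHC, residual complex-associated label being measured after gel-filtration separation.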

HLA-A02.01 [2] = target: T1, HLA-A02.01 (Homo sapiens, UniProt P04439, D140Y/D185E/D98H/E176V/E277Q/G131W/G231S/I119V/I121R/I166T/I218V/N151K/N90K/P208A/P217A/Q86G/Q94H/R138H/R169H); assay: Class I MHC peptide binding stability (pMHC-I dissociation, 125I-labeled light chain); conditions: for Stability (half-life (hr.)): EGFR T790M peptides, HLA allele A02.01; for Stability (T1/2 (h)): allele A02.01
T1 construct: made in house; host or cells: E. coli

Row | Structure (SMILES) | IC50 (HLA-A24.02) [nM] | Kd (HLA-A02.01 [1]) [nM] | IC50 (HLA-A02.01 [1]) [nM] | Stability (half-life (hr.)) (HLA-A02.01 [2]) [min] | Stability (T1/2 (h)) (HLA-A02.01 [2]) [h]
1 | CC[C@H](C)[C@H](N)C(=O)N[C@@H](CCSC)C(=O)N[C@@H](CCC(N)=O)C(=O)N[C@@H](CC(C)C)C(=O)N[C@@H](CCSC)C(=O)N1CCC[C@H]1C(=O)N[C@@H](Cc1ccccc1)C(=O)NCC(=O)N[C@@H](CS)C(=O)N[C@@H](CC(C)C)C(=O)O | 18100 | 653 | 837 | 30.94 | 0.5
2 | CC[C@H](C)[C@H](NC(=O)[C@H](CC(=O)O)NC(=O)[C@H](Cc1ccccc1)NC(=O)[C@H](CC(C)C)NC(=O)[C@@H](NC(=O)[C@H](CCC(=O)O)NC(=O)[C@@H](NC(=O)[C@H](CCSC)NC(=O)[C@@H](N)Cc1c[nH]c2ccccc12)[C@@H](C)O)[C@@H](C)O)C(=O)O (H-WMTETLFDI-OH; N-terminus and C-terminus assumed) | 713 |  | 14 |  | 4
3 | CSCC[C@H](NC(=O)[C@H](CC(C)C)NC(=O)[C@H](CCC(N)=O)NC(=O)[C@@H](N)CCSC)C(=O)N1CCC[C@H]1C(=O)N[C@@H](Cc1ccccc1)C(=O)NCC(=O)N[C@@H](CS)C(=O)N[C@@H](CC(C)C)C(=O)N[C@@H](CC(C)C)C(=O)O | 23600 | 16.3 | 20 | 22.87 | 0.4
4 | CC(C)C[C@H](NC(=O)[C@H](CC(C)C)NC(=O)[C@H](CCC(=O)O)NC(=O)[C@@H]1CCCN1C(=O)[C@H](Cc1ccccc1)NC(=O)[C@@H](N)CCCCN)C(=O)N[C@@H](CS)C(=O)N[C@H](C(=O)N[C@@H](Cc1c[nH]c2ccccc12)C(=O)O)C(C)C (H-KFPELLCVW-OH; N-terminus and C-terminus assumed) | 13.7 |  |  |  | 
5 | CC(C)C[C@H](NC(=O)[C@H](CS)NC(=O)[C@H](CO)NC(=O)[C@H](Cc1ccccc1)NC(=O)[C@H](CC(C)C)NC(=O)[C@H](CCCCN)NC(=O)[C@H](Cc1ccccc1)NC(=O)CN)C(=O)N[C@@H](CO)C(=O)N[C@@H](Cc1ccccc1)C(=O)O (H-GFKLFSCLSF-OH; N-terminus and C-terminus assumed) | 643 |  |  |  | 
6 | CSCC[C@H](NC(=O)[C@H](CCCNC(=N)N)NC(=O)[C@@H](N)CCCNC(=N)N)C(=O)N1CCC[C@H]1C(=O)N1CCC[C@H]1C(=O)N[C@@H](CS)C(=O)N[C@@H](CC(C)C)C(=O)N[C@@H](C)C(=O)N[C@@H](CC(N)=O)C(=O)N[C@@H](Cc1ccccc1)C(=O)O (H-RRMPPCLANF-OH; N-terminus and C-terminus assumed) | 141 |  |  |  | 
7 | CSCC[C@H](NC(=O)[C@H](CC(C)C)NC(=O)[C@H](CO)NC(=O)[C@H](CC(C)C)NC(=O)[C@@H]1CCCN1C(=O)[C@H](CCC(N)=O)NC(=O)[C@H](CCSC)NC(=O)[C@H](CCC(N)=O)NC(=O)[C@@H](N)Cc1ccccc1)C(=O)O | 14600 |  | 553 |  | 0.3
8 | CC[C@H](C)[C@H](NC(=O)[C@@H](NC(=O)[C@@H](NC(=O)[C@H](CC(C)C)NC(=O)[C@@H](NC(=O)[C@@H]1CCCN1C(=O)[C@H](CCCNC(=N)N)NC(=O)[C@H](Cc1c[nH]c2ccccc12)NC(=O)[C@H](CC(N)=O)NC(=O)[C@@H](N)CCSC)[C@@H](C)CC)[C@@H](C)O)[C@@H](C)CC)C(=O)O (H-MNWRPILTII-OH; N-terminus and C-terminus assumed) | 44900 |  | 1030 |  | 0.4
9 | CSCC[C@H](NC(=O)[C@H](CCC(=O)O)NC(=O)[C@H](CC(C)C)NC(=O)[C@H](CC(C)C)NC(=O)[C@H](CC(C)C)NC(=O)CNC(=O)[C@H](Cc1ccc(O)cc1)NC(=O)[C@@H](N)CC(C)C)C(=O)N[C@@H](CC(C)C)C(=O)O (H-LYGLLLEML-OH; N-terminus and C-terminus assumed) | 0.8 |  |  |  | 
10 | CC[C@H](C)[C@H](NC(=O)[C@H](CO)NC(=O)[C@H](Cc1c[nH]c2ccccc12)NC(=O)[C@H](Cc1c[nH]cn1)NC(=O)[C@H](C)NC(=O)[C@@H]1CCCN1C(=O)[C@H](CCSC)NC(=O)[C@H](CC(C)C)NC(=O)[C@H](CO)NC(=O)[C@@H](N)CC(C)C)C(=O)O | 12400 |  | 164 |  | 0.4
11 | CC[C@H](C)[C@H](NC(=O)[C@H](Cc1ccc(O)cc1)NC(=O)[C@H](CS)NC(=O)[C@H](Cc1ccccc1)NC(=O)[C@@H](N)Cc1ccccc1)C(=O)N[C@@H](CC(C)C)C(=O)N[C@@H](CC(N)=O)C(=O)N[C@H](C(=O)N[C@@H](CCSC)C(=O)N[C@@H](Cc1ccccc1)C(=O)O)[C@@H](C)O (H-FFCYILNTMF-OH; N-terminus and C-terminus assumed) | 73.4 |  |  |  | 
12 | CC[C@H](C)[C@H](NC(=O)[C@@H]1CCCN1C(=O)[C@H](Cc1ccccc1)NC(=O)[C@H](Cc1ccccc1)NC(=O)[C@H](CCCNC(=N)N)NC(=O)[C@H](C)NC(=O)[C@H](CC(C)C)NC(=O)[C@H](CCC(N)=O)NC(=O)[C@@H](N)[C@@H](C)O)C(=O)O | 52 |  | 19 |  | 
13 | CC[C@H](C)[C@H](NC(=O)[C@@H]1CCCN1C(=O)[C@H](CCCNC(=N)N)NC(=O)[C@H](Cc1c[nH]c2ccccc12)NC(=O)[C@H](CC(N)=O)NC(=O)[C@H](CCSC)NC(=O)CNC(=O)CNC(=O)[C@H](CCSC)NC(=O)[C@@H](N)CS)C(=O)O | 4450 |  | 346 |  | 0.4
14 | CSCC[C@H](NC(=O)[C@@H](N)CCCNC(=N)N)C(=O)N1CCC[C@H]1C(=O)N1CCC[C@H]1C(=O)N[C@@H](CS)C(=O)N[C@@H](CC(C)C)C(=O)N[C@@H](C)C(=O)N[C@@H](CC(N)=O)C(=O)N[C@@H](Cc1ccccc1)C(=O)O (H-RMPPCLANF-OH; N-terminus and C-terminus assumed) | 8.7 |  |  |  | 
15 | CC[C@H](C)[C@H](NC(=O)[C@H](CC(C)C)NC(=O)[C@H](CCC(N)=O)NC(=O)[C@@H](N)C(C)C)C(=O)N[C@@H](CCSC)C(=O)N[C@@H](CCC(N)=O)C(=O)N[C@@H](CC(C)C)C(=O)N[C@@H](CCSC)C(=O)N1CCC[C@H]1C(=O)N[C@@H](Cc1ccccc1)C(=O)O | 4560 | 4940 | 5490 |  | 
16 | CC[C@H](C)[C@H](NC(=O)[C@H](Cc1ccc(O)cc1)NC(=O)[C@@H](N)CC(C)C)C(=O)N[C@H](C(=O)N[C@@H](C)C(=O)N[C@@H](Cc1ccccc1)C(=O)N[C@@H](Cc1ccccc1)C(=O)N[C@@H](CC(C)C)C(=O)N[C@@H](CC(C)C)C(=O)O)[C@@H](C)O (H-LYITAFFLL-OH; N-terminus and C-terminus assumed) | 0.1 |  |  |  | 
17 | CC[C@H](C)[C@H](NC(=O)[C@H](Cc1ccc(O)cc1)NC(=O)[C@@H](N)CC(C)C)C(=O)N[C@H](C(=O)N[C@@H](C)C(=O)N[C@@H](Cc1ccccc1)C(=O)N[C@@H](Cc1ccccc1)C(=O)N[C@@H](Cc1ccccc1)C(=O)N[C@@H](CS)C(=O)N[C@@H](Cc1c[nH]c2ccccc12)C(=O)O)[C@@H](C)O (H-LYITAFFFCW-OH; N-terminus and C-terminus assumed) | 45.3 |  |  |  | 
18 | CC[C@H](C)[C@H](NC(=O)[C@H](Cc1ccc(O)cc1)NC(=O)[C@H](CC(C)C)NC(=O)[C@@H](N)CC(C)C)C(=O)N[C@H](C(=O)N[C@@H](C)C(=O)N[C@@H](Cc1ccccc1)C(=O)N[C@@H](Cc1ccccc1)C(=O)N[C@@H](CC(C)C)C(=O)N[C@@H](CC(C)C)C(=O)O)[C@@H](C)O (H-LLYITAFFLL-OH; N-terminus and C-terminus assumed) | 60.1 |  | 323 |  | 

Source: patent US20220282217A1, “COMPOSITIONS AND METHODS FOR PREPARING T CELL COMPOSITIONS AND USES THEREOF” (priority 2019, published 2022)
